What was measured:
[1] = tested on: femoral arterial and venous bypass thrombosis; experiment: Femoral arterial and venous bypass thrombosis in rabbits, single intravenous administration; assay type: in vivo, rabbit; details: 15 min
Description: 1. Grouping and administration: 48 Rabbits were randomly divided into 6 groups, 8 rabbits per group. 1) Sham operation group (NS): Intravenous injection of the same volume of physiological saline; 2) positive control bivalirudin group (6 mg/kg); 3) positive control enoxaparin group (200 U/kg); 4) Low dose group of polypeptide 2 (3.0 mg/kg); 5) Medium dose group of polypeptide 2 (6.0 mg/kg); 6) High dose group of polypeptide 2 (12.0 mg/kg). Polypeptide 2 was administered by single intravenous administration. According to the body weight in kilograms of the rabbits, the sample was dissolved in 2 mL of physiological saline for single bolus injection. The sham operation group was administered with the same volume of physiological saline.
2.1 Surgery preparation of rabbits: Rabbit were sent to the laboratory for accommodation for one day, and then screened at first. Blood samples were taken from arteries within ears, which were subjected to blood routine analysis and APTT examinations, and the rabbits with a normal blood hemogram and APTT between 16 and 28 seconds were selected for experiments. The rabbits to be tested were fasted with free access to water in the night before the experiment. The rabbits were anesthetized with intravenous injection of 3% sodium pentobarbital solution at 1 ml/kg, fixed in the supine position, and then, the common carotid artery at one side, external jugular vein, femoral artery at one side, femoral vein, and forelimb vein at one side were isolated. The forelimb vein was subjected to intubation for administration; the left femoral vein was subjected to intubation for blood collection to determine the platelet aggregation rate: the femoral artery was used for the establishment of an arterial thrombosis model; the common carotid artery and external jugular vein were used for the establishment of an arterial and venous bypass thrombosis model.
2.2 Arterial and venous bypass thrombosis (AVST) model: An arterial and venous shunt consists of two casings, of which an outer casing has a length of about 8 cm and an inner diameter of 7.9 mm, the inner casing has a length of about 2.5 cm and an inner diameter of 4.8 mm. The polyethylene tube was charged with a silk thread about 8 cm long and filled with […] heparin solution, of which one end was inserted into the left femoral artery and the other end was inserted into the right femoral vein. After administration for 30 seconds, the blood flow was released, which flowed from the left artery to the polyethylene tube and returned to the right vein. After 15 minutes, the blood flow was interrupted, the silk thread was quickly removed and placed on an aluminum foil (size: 2.5 cm×2.5 cm), measured for its wet weight, and kept overnight at room temperature and weighed for its dry weight.
The femoral arteries in the […] and both sides in the rabbits were isolated and stabilized for 10 min before the administration was started. An AT model was established by covering the femoral artery with 50% FeCl3 filter paper while administration, and the filter paper was removed after covering for 15 minutes. An AVST model was established and it was taken out after […]. Observation was continued for 120 min after administration until the experiment was completed.
3.4 Thrombus weight: After the experiment was completed, the segment of the blood vessels in which there had been thrombus formation was cut off, weighed for the wet weight, and then kept overnight at room temperature and weighed for the dry weight. The thrombosis inhibitory rate was calculated with a calculation equation as follows: […]

[2] = tested on: blood coagulation function; experiment: PT in rats, intravenous maintenance administration; assay type: in vivo, rat
Description: (§1) 160 Rats were randomly divided into groups, 5 to 10 rats per group.
(§2) According to the body weight in kilograms of the rats, the first dose of a drug was dissolved in 2 mL of physiological saline for single bolus injection. The maintaining dose of drug was dissolved in 9 ml of physiological saline, and placed in a double-channel micro-injection pump, which was dripped off within 90 minutes at a dripping speed of 0.1 ml/min. The sham operation group was administered with the same volume of physiological saline.
(§3) The rats were fasted with free access to water overnight before the experiment.
(§4) The blood samples were taken before administration, administration for 60 minutes, and before termination of administration, respectively, to determine their activated partial thromboplastin time (APTT) and prothrombin time (PT). The blood samples were centrifuged at 3510 rpm for 8 minutes to obtain platelet poor plasma (PPP). Reagent reconstruction and preservation were performed according to the operation requirements of the kit. Immediately after each blood sample was placed into a test cup and then PT and APTT reagents were added, the test was started. After the test was completed, results were recorded.
(§5) 5.1 Determination of blood coagulation function: The blood samples were taken 0 min before administration, administration for 60 minutes, and termination of administration, respectively, and then determined using a platelet-aggregation coagulation factor analyzer for the blood coagulation functions (PT. APTT) and ACT.

[3] = tested on: FeCl3-induced common carotid arterial thrombosis; experiment: FeCl3-induced common carotid arterial thrombosis in rats; assay type: in vivo, rat
Description: as §1, §2, §3
After administration at a load dosage maintenance for 30 minutes, a filter paper with a 3 mm diameter and immersed with 35% FeCl3 solution was applied below the common carotid artery, below which a small piece of a plastic film (2.5 cm×2.0 cm) was placed to protect surrounding tissues. The body temperature was detected with a temperature probe in the distal end of the artery, and the time required from the beginning of stimulation to the point when the temperature decreased by 2.5 degrees was examined as the vascular occlusion time.
The time from the point when FeCl3 was placed to the point when the temperature of the artery indicated a decrease of 2.5° C. was the vascular occlusion time, which reflected the state of thrombus formation.

[4] = tested on: blood coagulation function; experiment: APTT in rats, intravenous maintenance administration; assay type: in vivo, rat
Description: as §1, §2, §3, §4, §5

[5] = iv 0.041 + 0.125 (mg/kg + mg/kg/h)
[6] = iv 0.125 + 0.375 (mg/kg + mg/kg/h)
[7] = iv 0.25 + 0.75 (mg/kg + mg/kg/h)
[8] = iv 0.5 + 1.25 (mg/kg + mg/kg/h)
[9] = iv 1.5 + 3.75 (mg/kg + mg/kg/h)
[10] = iv 0.08 + 0.325 (mg/kg + mg/kg/h)
[11] = iv 0.17 + 0.65 (mg/kg + mg/kg/h)
[12] = iv 0.35 + 1.3 (mg/kg + mg/kg/h)
[13] = iv 0.35 + 3.3 (mg/kg + mg/kg/h)

## D-Phe Pro Arg Pro Gly Gly Gly Gly Asn Gly Asp Phe Glu Glu Ile Pro Glu Glu Tyr Leu Glu Ala Ala Ala Lys Cys Har Gly Asp Trp Pro Cys [Polypeptide 2]
[1]; single iv 3.0 mg/kg
  Thrombus dry weight: 20.2 ± 4.3 mg
  Thrombus inhibitory rate: 14.48%
[1]; single iv 6.0 mg/kg
  Thrombus dry weight: 13.5 ± 5.3 mg
  Thrombus inhibitory rate: 42.80%
[1]; single iv 12.0 mg/kg
  Thrombus dry weight: 10.6 ± 6.8 mg
  Thrombus inhibitory rate: 55.24%
[2]; [5]
  PT Before administration: 10.74 ± 3.97
  PT Fold of change: 1.95 ± 1.27
  PT administration for 60 minutes: 18.95 ± 8.65
[2]; [6]
  PT Before administration: 11.21 ± 1.62
  PT Fold of change: 1.70 ± 0.34
  PT administration for 60 minutes: 19.00 ± 4.39
[2]; [7]
  PT Before administration: 11.19 ± 1.06
  PT Fold of change: 1.87 ± 0.50
  PT administration for 60 minutes: 20.82 ± 5.66
[2]; [8]
  PT Before administration: 10.58 ± 1.48
  PT Fold of change: 2.53 ± 0.73
[2]; iv 1 + 2.5 (mg/kg + mg/kg/h)
  PT Before administration: 10.53 ± 1.29
  PT Fold of change: 5.57 ± 2.74
  PT administration for 60 minutes: 56.65 ± 23.16
[2]; [9]
  PT Before administration: 11.98 ± 1.02
  PT Fold of change: 3.91 ± 1.89
  PT administration for 60 minutes: 46.64 ± 23.46
[3]; [5]
  Common carotid arterial thrombosis OT: 20.20 ± 10.00 min
[3]; [6]
  Common carotid arterial thrombosis Fold of prolongation: 27.99
  Common carotid arterial thrombosis OT: 16.23 ± 6.76 min
[3]; [7]
  Common carotid arterial thrombosis Fold of prolongation: 36.85
  Common carotid arterial thrombosis OT: 14.23 ± 4.82 min
[3]; [8]
  Common carotid arterial thrombosis OT: 9.25 ± 4.86 min
[3]; iv 1 + 2.5 (mg/kg + mg/kg/h)
  Common carotid arterial thrombosis Fold of prolongation: 56.03
  Common carotid arterial thrombosis OT: 9.91 ± 6.20 min
[3]; [9]
  Common carotid arterial thrombosis OT: 7.13 ± 3.46 min
[4]; [5]
  APTT Before administration: 24.54 ± 5.09
  APTT Fold of change: 1.65 ± 0.84
  APTT administration for 60 minutes: 37.29 ± 10.59
[4]; [6]
  APTT Before administration: 24.05 ± 5.44
  APTT Fold of change: 1.94 ± 0.68
  APTT administration for 60 minutes: 44.55 ± 12.74
[4]; [7]
  APTT Before administration: 24.98 ± 5.11
  APTT Fold of change: 2.22 ± 1.12
  APTT administration for 60 minutes: 53.13 ± 22.57
[4]; [8]
  APTT Before administration: 22.03 ± 4.70
  APTT Fold of change: 2.49 ± 1.38
  APTT administration for 60 minutes: 52.29 ± 25.87
[4]; iv 1 + 2.5 (mg/kg + mg/kg/h)
  APTT Before administration: 23.98 ± 6.83
  APTT Fold of change: 5.01 ± 3.00
  APTT administration for 60 minutes: 108.52 ± 56.27
[4]; [9]
  APTT Before administration: 23.94 ± 4.49
  APTT Fold of change: 3.19 ± 2.02
  APTT administration for 60 minutes: 74.62 ± 49.41

## Bivalirudin: Bivalirudin for Injection, Xi'an Xintong Pharmaceutical Research Co., Ltd.; positive control thrombin inhibitor
[1]; single iv 6.0 mg/kg
  Thrombus dry weight: 20.8 ± 6.3 mg
  Thrombus inhibitory rate: 11.86%
[2]; [10]
  PT Before administration: 10.42 ± 1.16
  PT Fold of change: 1.82 ± 0.24
  PT administration for 60 minutes: 18.95 ± 3.36
[2]; [11]
  PT Before administration: 11.16 ± 1.28
  PT Fold of change: 1.99 ± 0.78
  PT administration for 60 minutes: 21.85 ± 7.38
[2]; [12]
  PT Before administration: 11.73 ± 1.48
  PT Fold of change: 3.54 ± 1.45
  PT administration for 60 minutes: 42.58 ± 21.94
[2]; iv 0.5 + 2 (mg/kg + mg/kg/h)
  PT Before administration: 7.87 ± 1.93
  PT Fold of change: 4.46 ± 1.47
  PT administration for 60 minutes: 39.13 ± 7.30
[3]; [10]
  Common carotid arterial thrombosis Fold of prolongation: 1.79 ± 0.06
  Common carotid arterial thrombosis OT: 44.75 ± 1.53 min
[3]; [11]
  Common carotid arterial thrombosis Fold of prolongation: 2.24 ± 0.24
  Common carotid arterial thrombosis OT: 56.00 ± 6.03 min
[3]; [12]
  Common carotid arterial thrombosis Fold of prolongation: 2.23 ± 0.33
  Common carotid arterial thrombosis OT: 55.63 ± 8.21 min
[3]; iv 0.5 + 2 (mg/kg + mg/kg/h)
  Common carotid arterial thrombosis Fold of prolongation: 2.32 ± 0.23
  Common carotid arterial thrombosis OT: 58.00 ± 5.77 min
[4]; [10]
  APTT Before administration: 25.05 ± 1.78
  APTT Fold of change: 1.36 ± 0.50
  APTT administration for 60 minutes: 34.18 ± 12.92
[4]; [11]
  APTT Before administration: 25.55 ± 5.02
  APTT Fold of change: 1.66 ± 0.60
  APTT administration for 60 minutes: 41.46 ± 14.96
[4]; [13]
  APTT Before administration: 23.16 ± 2.37
  APTT Fold of change: 4.10 ± 1.86
  APTT administration for 60 minutes: 95.86 ± 45.71
[4]; iv 0.5 + 2 (mg/kg + mg/kg/h)
  APTT Before administration: 24.77 ± 7.84
  APTT Fold of change: 3.89 ± 1.37
  APTT administration for 60 minutes: 90.23 ± 21.92
